The record followed here is patent publication US8309685B2 (Celgene Avilomics Research, Inc., priority 2007, dated 2012).

The target in series [1] is T1, A156T mutant of the HCV NS3/4A 1b protease enzyme (Hepatitis C virus genotype 1b, UniProt P26663, A1182T).
T1 construct: 10× stocks of NS3/4A protease enzyme from Bioenza (Mountain View, Calif.); purchased Bioenza (Mountain View, Calif.)
In words: HCV Protease FRET Assay (IC50), A156T mutant. It counts as biochemical. The settings on record: read-out: Inhibition, HCV A156T; A156T enzyme, FRET assay. The protocol:
HCV Protease FRET Assay for Wild Type and Mutated NS3/4A 1b Enzymes (IC50)
The protocol is a modified FRET-based assay (v—02) from In Vitro Resistance Studies of HCV Serine Protease Inhibitors, 2004, JBC, vol. 279, No. 17, pp 17508-17514.
10× stocks of NS3/4A protease enzyme from Bioenza (Mountain View, Calif.) and 1.13× 5-FAM/QXL™ 520 FRET peptide substrate from Anaspec (San Jose, Calif.) were prepared in 50 mM HEPES, pH 7.8, 100 mM NaCl, 5 mM DTT and 20% glycerol. 5 μL of each enzyme were pre-incubated in a Corning (#3573) 384-well, black, non-treated microtiter plate (Corning, N.Y.) for 30 min at 25° C. with a 0.5 μL volume of 50% DMSO and serially diluted compounds prepared in 50% DMSO. Protease reactions were started with the addition of 45 μL of the FRET substrate and monitored for 120 minutes at λex487/λem514 through Quad^4 monochromoters in a Synergy^4 plate reader from BioTek (Winooski, Vt.). At the conclusion of each assay, progress curves from each well were examined for linear reaction kinetics and fit statistics (R^2, absolute sum of squares). Initial velocity (0 minutes to 30+ minutes) from each reaction was determined from the slope of a plot of relative fluorescence units vs time (minutes) and then plotted against inhibitor concentration to estimate IC50 from log[Inhibitor] vs Response, Variable Slope model in GraphPad Prism from GraphPad Software (San Diego, Calif.).
The compound numbers correspond to the compound numbers in Table 3. […] ;

The test system of series [2] is HCV RNA replicon in cell line ET (luc-ubi-neo/ET), human Huh7 hepatoma. In words: Method A: HCV RNA replicon antiviral assay (luciferase, ET cell line). It counts as cell-based, Hepatitis C virus. The conditions noted are these: Hepatitis C virus, Huh-7. Put shortly: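 Six 3-fold dilutions of each drug were tested on subconfluent luc-ubi-neo/ET Huh7 replicon cells (5×10^3/well) for 72 hr at 37 °C. EC50 and EC90 came from luciferase read-out, IC50 from CytoTox-1 cell number, and […]; interferon alpha-2b was run each time as control.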
(In general: Replicon systems follow genome replication, usually without infectious particles.)

Series [3] has as its system cell line ET (luc-ubi-neo/ET), human Huh7 hepatoma cell line. As to the kind of experiment: Method A: cytotoxicity in ET replicon cells (CytoTox-1). It counts as cell-based. The conditions noted are these: concentration decreasing cell viability by 50%, 72 hr. The protocol:
The compounds were assayed to evaluate the antiviral activity and cytotoxicity of compounds in vitro using HCV RNA replicons. This assay used the cell line ET (luc-ubi-neo/ET), which is a human Huh7 hepatoma cell line that contains an HCV RNA replicon with a stable luciferase (Luc) reporter and three cell culture-adaptive mutations. […]
The ET cell line was grown in Dulbecco's modified essential media (DMEM), 10% fetal bovine serum (FBS), 1% penicillin-streptomycin (pen-strep), 1% glutamine, 250 μg/ml G418 in a 5% CO2 incubator at 37° C. All cell culture reagents were obtained from Mediatech (Manassas, Va.). Cells were trypsinized (1% trypsin:EDTA) and plated out at 5×10^3 cells/well in white 96-well assay plates (Costar) dedicated to cell number (cytotoxicity) or antiviral activity assessments. Drugs were added at six 3-fold concentrations each and the assay was run in DMEM, 5% FBS, 1% pen-strep, 1% glutamine. Human interferon alpha-2b (PBL Biolabs, New Brunswick, N.J.) was included in each run as a positive control compound. Cells were processed 72 hr post drug addition when the cells are still subconfluent. Antiviral activity was measured by analyzing replicon-derived luciferase activity using the Steady-Glo Luciferase Assay System (Promega, Madison, Wis.) according to manufacturer's instruction. The number of cells in each well was determined by CytoTox-1 reagent (Promega). […].

The target in series [4] is T2, D168A mutant of the HCV NS3/4A 1b protease enzyme (Hepatitis C virus genotype 1b, UniProt P26663, D1194A).
T2 construct: 10× stocks of NS3/4A protease enzyme from Bioenza (Mountain View, Calif.); purchased Bioenza (Mountain View, Calif.)
In words: HCV Protease FRET Assay (IC50), D168A mutant. It counts as biochemical. The conditions noted are these: read-out: Inhibition, HCV D168A; D168A enzyme, FRET assay.

Series [5] addresses T3, wild type HCV NS3/4A 1b protease enzyme (Hepatitis C virus genotype 1b, UniProt P26663).
T3 construct: 10× stocks of NS3/4A protease enzyme from Bioenza (Mountain View, Calif.); purchased Bioenza (Mountain View, Calif.)
In words: biochemical. It counts as biochemical. The settings on record: read-out: Inhibition, WT; WT enzyme, FRET assay.

For series [6], the target named is T3, wild type HCV NS3/4A 1b protease enzyme. As to the kind of experiment: HCV Protease FRET Assay (IC50_APP), wild type. It counts as biochemical. The settings on record: read-out: IC50_APP, WT; apparent IC50, wild type NS3/4A 1b.
Series [7] has as its target T2, D168A mutant of the HCV NS3/4A 1b protease enzyme. As to the kind of experiment: HCV Protease FRET Assay (IC50_APP), D168A mutant. It counts as biochemical. The conditions noted are these: apparent IC50, D168A mutant; read-out: IC50_APP, HCV D168A.
Series [8] deals with T1, A156T mutant of the HCV NS3/4A 1b protease enzyme. In words: HCV Protease FRET Assay (IC50_APP), A156T mutant. It counts as biochemical. The settings on record: apparent IC50, A156T mutant; read-out: IC50_APP, HCV A156T.
Setting [9] is: Replicon, assay of Example 22, 72 hr, read-out: Inhibition, Replicon.
The mark [10] stands for this setting: assay described in Example 22, read-out: Replicon (IC50).

Molecules are shown by their SMILES. Read-outs that look alike come from different tables or passages of the source.

In the case of `C=C[C@@H]1C[C@]1(NC(=O)[C@@H]1C[C@@H](Oc2cc(-c3ccccc3)nc3cc(OC)ccc23)CN1C(=O)[C@H](CNC(=O)/C=C/CN(C)C)NC(=O)OC(C)(C)C)C(=O)NS(=O)(=O)c1ccccc1` [Compound I-5, N-[(1,1-dimethylethoxy)carbonyl]-3-[(4-dimethylamino-2-butenoyl)amino]-L-alanyl-(4R)-4-[(7-methoxy-2-phenyl-4-quinolinyl)oxy]-L-prolyl-1-amino-2-ethenyl-N-(phenylsulfonyl)-(1R,2S)-cyclopropanecarboxamide], the IC50 in series [1] is 1000 to 10000 nM; in series [2] (setting [9]) it was 1000 to 10000 nM; in series [4] it was 1000 to 10000 nM; in series [5], < 10 nM. Further, the “Inhibition, Cytotoxicity” value in series [3] is recorded as “E (IC50≧10,000 nM)”.

As to `C=CC(=O)NCC[C@H](NC(=O)OC(C)(C)C)C(=O)N1C[C@H](Oc2cc(-c3ccccc3)nc3cc(OC)ccc23)C[C@H]1C(=O)N[C@]1(C(=O)NS(=O)(=O)c2ccccc2)C[C@H]1C=C` [Compound I-8, (2S)-2-[[(1,1-dimethylethoxy)carbonyl]amino]-4-(2-propenoyl)amino-butanoyl-(4R)-4-[(7-methoxy-2-phenyl-4-quinolinyl)oxy]-L-prolyl-1-amino-2-ethenyl-N-(phenylsulfonyl)-(1R,2S)-cyclopropanecarboxamide], the IC50 in series [1] was 10 to 100 nM; in series [2] (setting [9]), 100 to 1000 nM; in series [4], 10 to 100 nM; in series [5], < 10 nM. In addition, the “Inhibition, Cytotoxicity” value in series [3] was “D (IC50>1000 nM and <10,000 nM)”.

For `C=CC(=O)N1CCC(NC(=O)OC(C)(C)C)(C(=O)N2C[C@H](Oc3cc(-c4ccccc4)nc4cc(OC)ccc34)C[C@H]2C(=O)N[C@]2(C(=O)NS(=O)(=O)c3ccccc3)C[C@H]2C=C)CC1` [Compound I-26, tert-butyl-1-acryloyl-4-((2S,4R)-4-(7-methoxy-2-phenylquinolin-4-yloxy)-2-((1R,2S)-1-(phenylsulfonylcarbamoyl)-2-vinylcyclopropylcarbamoyl)pyrrolidine-1-carbonyl)piperidin-4-ylcarbamate], the values for the IC50 in series [2] (setting [9]), in series [4] and in series [5] were > 10000 nM, 100 to 1000 nM and < 10 nM, respectively. Moreover, in series [3], the “Inhibition, Cytotoxicity” value is recorded as “E (IC50≧10,000 nM)”.

As to `C=C[C@@H]1C[C@]1(NC(=O)[C@@H]1C[C@@H](Oc2cc(-c3ccccc3)nc3cc(OC)ccc23)CN1C(=O)[C@H](CN(C)C(=O)/C=C/CN(C)C)NC(=O)OC(C)(C)C)C(=O)NS(=O)(=O)c1ccccc1` [Compound I-30, tert-butyl-(S)-3-((E)-4-(dimethylamino)-N-methylbut-2-enamido)-1-((2S,4R)-4-(7-methoxy-2-phenylquinolin-4-yloxy)-2-((1R,2S)-1-(phenylsulfonylcarbamoyl)-2-vinylcyclopropylcarbamoyl)pyrrolidin-1-yl)-1-oxopropan-2-ylcarbamate], the IC90 in series [2] (assay described in Example 22) fell in the range of 100 to 1000 nM. Further, the IC50 in series [2] (setting [9]) is 10 to 100 nM; in series [2] (setting [10]), 10 to 100 nM; in series [6], 10 to 100 nM; in series [7], 1000 to 10000 nM; in series [8] it was 1000 to 10000 nM; in series [4] it was 100 to 1000 nM. Besides, in series [5], the IC50 was < 10 nM. In addition, the “Inhibition, Cytotoxicity” value in series [3] is “E (IC50≧10,000 nM)”.

Consider `C=C[C@@H]1C[C@]1(NC(=O)[C@@H]1C[C@@H](Oc2cc(-c3ccccc3)nc3cc(OC)ccc23)CN1C(=O)[C@H](CN(C)C(=O)C(=C)C)NC(=O)OC(C)(C)C)C(=O)NS(=O)(=O)c1ccccc1` [Compound I-32, tert-butyl-(S)-1-((2S,4R)-4-(7-methoxy-2-phenylquinolin-4-yloxy)-2-((1R,2S)-1-(phenylsulfonylcarbamoyl)-2-vinylcyclopropylcarbamoyl)pyrrolidin-1-yl)-3-(N-methylmethacrylamido)-1-oxopropan-2-ylcarbamate], for which the IC50 was 100 to 1000 nM in series [2] (setting [9]), 1000 to 10000 nM in series [4] and < 10 nM in series [5]. In addition, the “Inhibition, Cytotoxicity” value in series [3] was “E (IC50≧10,000 nM)”.

With `C=CC(=O)NC[C@H](NC(=O)OC(C)(C)C)C(=O)N1C[C@H](Oc2cc(-c3ccccc3)nc3cc(OC)ccc23)C[C@H]1C(=O)N[C@]1(C(=O)O)C[C@H]1C=C` [Compound I-41, (1R,2S)-1-((2S,4R)-1-((S)-3-acrylamido-2-(tert-butoxycarbonylamino)propanoyl)-4-(7-methoxy-2-phenylquinolin-4-yloxy)pyrrolidine-2-carboxamido)-2-vinylcyclopropanecarboxylic acid], the IC50 is > 10000 nM in series [2] (setting [9]), 1000 to 10000 nM in series [4] and 10 to 100 nM in series [5]. Moreover, the “Inhibition, Cytotoxicity” value in series [3] is on record as “E (IC50≧10,000 nM)”.

For `C#CCN(C)C(=O)CCCC(=O)N[C@@H](CNC(=O)C=C)C(=O)N1C[C@H](Oc2cc(-c3ccccc3)nc3cc(OC)ccc23)C[C@H]1C(=O)N[C@]1(C(=O)NS(=O)(=O)c2ccccc2)C[C@H]1C=C` [Compound I-42], the IC50 in series [1] was 100 to 1000 nM; in series [2] (setting [9]) it was > 10000 nM; in series [2] (setting [10]) it was > 10000 nM; in series [6], 10 to 100 nM; in series [7], 100 to 1000 nM; in series [5], < 10 nM. In series [2] (assay described in Example 22), the IC90 was > 10000 nM. Further, the “Inhibition, Cytotoxicity” value in series [3] was “E (IC50≧10,000 nM)”.

For `C=C[C@@H]1C[C@]1(NC(=O)[C@@H]1C[C@@H](Oc2cc(-c3ccccc3)nc3cc(OC)ccc23)CN1C(=O)CNC(=O)/C=C/C)C(=O)NS(=O)(=O)c1ccccc1` [Compound I-47, (2S,4R)-1-(2-(E)-but-2-enamidoacetyl)-4-(7-methoxy-2-phenylquinolin-4-yloxy)-N-((1R,2S)-1-(phenylsulfonylcarbamoyl)-2-vinylcyclopropyl)pyrrolidine-2-carboxamide], the IC50 in series [2] (setting [9]) lay within 1000 to 10000 nM; in series [4], 1000 to 10000 nM; in series [5], 10 to 100 nM. Besides, in series [3], the “Inhibition, Cytotoxicity” value was “E (IC50≧10,000 nM)”.

For `C=C[C@@H]1C[C@]1(NC(=O)[C@@H]1C[C@@H](Oc2cc(-c3ccccc3)nc3cc(OC)ccc23)CN1C(=O)CNC(=O)C#CC)C(=O)NS(=O)(=O)C1CC1` [Compound I-48, (2S,4R)-1-(2-but-2-ynamidoacetyl)-N-((1R,2S)-1-(cyclopropylsulfonylcarbamoyl)-2-vinylcyclopropyl)-4-(7-methoxy-2-phenylquinolin-4-yloxy)pyrrolidine-2-carboxamide], the IC50 lay in the range of 1000 to 10000 nM in series [2] (setting [9]), 1000 to 10000 nM in series [4] and 10 to 100 nM in series [5]. Moreover, the “Inhibition, Cytotoxicity” value in series [3] is on record as “E (IC50≧10,000 nM)”.

In general, IC90 refers to the concentration at which the effect reaches the 90% level. Higher therefore signals a need for much substance.
